# Measurements as given in US10940139B2, “Compounds that interact with the Ras superfamily for the treatment of cancers, inflammatory diseases, rasopathies, and fibrotic disease” (Shy Therapeutics LLC, priority 2017, dated 2021).
# Read-outs that look alike come from different tables or passages of the source.
# Experiments:
# [1] = biological target: KRas G12C/Q61H double mutant (Homo sapiens (Human), UniProt P01116, G12C/Q61H); assay: Ras GTP binding domain inhibition assay (labeled GTP); conditions: 20 μM compound; read-out: % Inhibition at 20 μM KRas G12C Q61H
# Sequence of KRas G12C/Q61H double mutant (P01116-2 other isoform, or with tags, fused parts or gaps G12C/Q61H): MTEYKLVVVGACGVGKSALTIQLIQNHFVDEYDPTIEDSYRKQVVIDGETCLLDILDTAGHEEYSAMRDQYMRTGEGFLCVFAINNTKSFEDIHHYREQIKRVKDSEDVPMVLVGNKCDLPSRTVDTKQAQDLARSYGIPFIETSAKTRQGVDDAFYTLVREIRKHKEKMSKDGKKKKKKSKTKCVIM
# How it was run: (§1)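 Ni-plate capture of His-KRas (3-10 μg/ml, o/n, 4° C); Tris pH 7.5/MgCl2/DTT buffer, 1% DMSO. Cpd 20 μM or titration, 3 h RT. Cy3/Cy5-GTP 45 min RT, wash, fluorescence of bound GTP.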
# [2] = biological target: KRas G12D/Q61H double mutant (Homo sapiens (Human), UniProt P01116, G12D/Q61H); assay: as above; conditions: for IC50: serial dilution, read-out: KRas G12D Q61H (classes E-H, IC50)
# Sequence of KRas G12D/Q61H double mutant (P01116-2 other isoform, or with tags, fused parts or gaps G12D/Q61H): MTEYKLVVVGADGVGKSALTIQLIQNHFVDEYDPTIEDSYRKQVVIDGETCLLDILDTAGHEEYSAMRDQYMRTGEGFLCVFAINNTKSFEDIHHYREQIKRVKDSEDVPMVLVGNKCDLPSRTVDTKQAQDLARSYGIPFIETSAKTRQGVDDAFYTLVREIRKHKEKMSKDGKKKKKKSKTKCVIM
# How it was run: as §1
# KRas Q61H mutant = KRas Q61H mutant (Homo sapiens (Human), UniProt P01116, Q61H); assay: as above; conditions: 20 μM compound; read-out: % Inhibition at 20 μM KRas Q61H
# Sequence of KRas Q61H mutant (P01116-2 other isoform, or with tags, fused parts or gaps Q61H): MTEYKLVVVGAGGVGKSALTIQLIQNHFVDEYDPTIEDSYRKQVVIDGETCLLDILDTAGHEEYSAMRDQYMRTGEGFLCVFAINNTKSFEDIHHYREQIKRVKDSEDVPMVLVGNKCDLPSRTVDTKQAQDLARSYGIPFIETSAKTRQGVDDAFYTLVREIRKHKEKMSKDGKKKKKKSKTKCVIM
# How it was run: as §1
# KRas G12D mutant protein = KRas G12D mutant protein (Homo sapiens (Human), UniProt P01116, G12D); assay: as above; conditions: at 20 μM; read-out: KRas G12D % Inh.
# Sequence of KRas G12D mutant protein (P01116-2 other isoform, or with tags, fused parts or gaps G12D): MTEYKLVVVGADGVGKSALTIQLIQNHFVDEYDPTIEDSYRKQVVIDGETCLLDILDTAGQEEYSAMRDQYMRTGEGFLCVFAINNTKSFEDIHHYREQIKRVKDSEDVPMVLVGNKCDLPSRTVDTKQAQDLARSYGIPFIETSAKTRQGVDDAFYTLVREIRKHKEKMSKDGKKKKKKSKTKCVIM
# Rac-1 = Rac-1 (Homo sapiens (Human), UniProt P63000); assay: Rac inhibition assay (labeled GTP); type: binding; conditions: read-out: Rac-1 % Inh.
# Rho-A = Rho-A (Homo sapiens (Human), UniProt P61586); assay: Rho inhibition assay (labeled GTP); type: binding; conditions: read-out: Rho-A % Inh.
# Sequence of Rho-A (P61586 whole entry): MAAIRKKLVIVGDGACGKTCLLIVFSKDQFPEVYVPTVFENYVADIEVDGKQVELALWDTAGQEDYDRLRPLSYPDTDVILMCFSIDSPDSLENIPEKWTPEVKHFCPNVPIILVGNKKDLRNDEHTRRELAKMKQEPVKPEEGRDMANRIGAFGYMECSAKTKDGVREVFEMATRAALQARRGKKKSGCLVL
# [3] = 20 μM compound, read-out: % Inhibition at 20 μM KRas G12D Q61H
# [4] = at 20 μM, read-out: KRas G12D Q61H % Inh.
Compound,inhibition at 20 µM [1] [%],"inhibition at 20 µM [2, 3] [%]",inhibition at 20 µM (KRas Q61H mutant) [%],IC50 [2] [µM],inhibition at 20 µM (KRas G12D mutant protein) [%],"inhibition at 20 µM [2, 4] [%]",inhibition at 20 µM (Rac-1) [%],inhibition at 20 µM (Rho-A) [%]
Oc1nc(-c2ccccn2)nc2c(-c3ccccc3)csc12 [drawing 2694],25 to 50,25 to 50,51 to 75,–,–,–,–,–
COc1cccc(N2CCN(C(=O)c3csc4c(O)nc(-c5ccccn5)nc34)CC2)c1 [drawing 2713],51 to 75,1 to 25,51 to 75,–,–,–,–,–
Cc1ccccc1N1CCN(C(=O)c2csc3c(O)nc(-c4ccccn4)nc23)CC1 [drawing 2723],51 to 75,25 to 50,51 to 75,–,–,–,–,–
O=C(c1csc2c(O)nc(-c3ccccn3)nc12)N1CCN(Cc2cccc(O)c2)CC1 [drawing 2726],76 to 100,76 to 100,76 to 100,11 to 30,–,–,–,–
O=C(c1csc2c(O)nc(-c3ccccn3)nc12)N1CCOC(c2cccc(F)c2)C1 (stereo not shown) [drawing 2732],1 to 25,25 to 50,1 to 25,–,–,–,–,–
O=C(c1csc2c(O)nc(-c3ccccn3)nc12)N1CCOC(c2nccs2)C1 (stereo not shown) [drawing 2734],51 to 75,25 to 50,51 to 75,5 to 10,–,–,–,–
COc1ccnc(-c2nc(O)c3c(Br)csc3n2)c1 [drawing 2742],1 to 25,25 to 50,25 to 50,–,–,–,–,–
O=C(NCCc1cccnc1)c1csc2nc(-c3ccccn3)nc(N3CCOCC3)c12 [drawing 2744],25 to 50,1 to 25,51 to 75,–,–,–,–,–
COc1ccc(CCNC(=O)c2csc3nc(-c4ccccn4)nc(N4CCOCC4)c23)cn1 [drawing 2745],25 to 50,25 to 50,51 to 75,–,–,–,–,–
COc1ccc(CCN(C)C(=O)c2csc3nc(-c4ccccn4)nc(N4CCOCC4)c23)cn1 [drawing 2746],25 to 50,0,25 to 50,–,–,–,–,–
COc1cc(CCNC(=O)c2csc3nc(-c4ccccn4)nc(N4CCOCC4)c23)ccn1 [drawing 2747],25 to 50,1 to 25,25 to 50,–,–,–,–,–
COc1ncc(CCNC(=O)c2csc3nc(-c4ccccn4)nc(N4CCOCC4)c23)cn1 [drawing 2748],25 to 50,1 to 25,25 to 50,–,–,–,–,–
O=C(NCCc1cncs1)c1csc2nc(-c3ccccn3)nc(N3CCOCC3)c12 [drawing 2749],25 to 50,1 to 25,25 to 50,–,–,–,–,–
N#Cc1ccc(CCNC(=O)c2csc3nc(-c4ccccn4)nc(N4CCOCC4)c23)cc1 [drawing 2750],1 to 25,1 to 25,1 to 25,–,–,–,–,–
CC(C)(C(=O)Nc1ccnc(-c2ccccn2)n1)c1ccc(C#N)cc1 [drawing 2751],51 to 75,1 to 25,51 to 75,–,–,–,–,–
CC(C)(C(=O)Nc1nc(-c2ccccn2)nc2sccc12)c1ccc(C#N)cc1 [drawing 2752],1 to 25,0,1 to 25,–,–,–,–,–
Oc1nc(-c2ccccn2)nc2c(-c3cc(CN4CCCC4)ccc3F)csc12 [drawing 3821],–,–,–,–,76 to 100,51 to 75,76 to 100,76 to 100
Cc1nn(C(C)C)cc1-c1csc2c(O)nc(-c3ccccn3)nc12 [drawing 3825],–,–,–,–,51 to 75,51 to 75,76 to 100,76 to 100

Compound,inhibition at 20 µM [1] [%],"inhibition at 20 µM [2, 3] [%]",inhibition at 20 µM (KRas Q61H mutant) [%],IC50 [2] [µM],inhibition at 20 µM (KRas G12D mutant protein) [%],"inhibition at 20 µM [2, 4] [%]",inhibition at 20 µM (Rac-1) [%],inhibition at 20 µM (Rho-A) [%]
Cc1sc2c(O)nc(-c3ccccn3)nc2c1C(=O)N1CCN(c2ccccc2)CC1C (stereo not shown) [drawing 3828],–,–,–,–,51 to 75,51 to 75,51 to 75,51 to 75
COc1cnc(-c2nccn2C)nc1O [drawing 3831],–,–,–,–,76 to 100,76 to 100,76 to 100,76 to 100
Nc1cccc(-c2csc3c(O)nc(-c4ccccn4)nc23)n1 [drawing 3832],–,–,–,–,51 to 75,51 to 75,76 to 100,76 to 100
Cc1sc2c(O)nc(-c3ccccn3)nc2c1-c1ccccc1Cl [drawing 3833],–,–,–,–,51 to 75,51 to 75,76 to 100,76 to 100
COc1cnc(-c2cnc[nH]2)nc1O [drawing 3834],–,–,–,–,51 to 75,51 to 75,76 to 100,76 to 100
Oc1nc(-c2ccccn2)nc2c(CC3CCNC3)csc12 (stereo not shown) [drawing 3844],–,–,–,–,51 to 75,51 to 75,76 to 100,76 to 100
O=c1[nH]c(-c2ccccn2)nc2c([C@@H]3O[C@H](CO)[C@@H](O)[C@H]3O)csc12 [drawing 3845],–,–,–,–,25 to 50,25 to 50,51 to 75,51 to 75
COCCNc1nc(-c2cn(C)cn2)nc2sc(-c3ccncc3)c(-c3ccccc3)c12 [drawing 3848],–,–,–,–,51 to 75,76 to 100,76 to 100,76 to 100
COc1nc(-c2cn(C)cn2)nc2sc(-c3ccncc3)c(-c3ccccc3)c12 [drawing 3849],–,–,–,–,25 to 50,25 to 50,25 to 50,51 to 75
OCC1(c2ccc(-c3nc(-c4ccccn4)nc(O)c3Oc3ccccc3)cc2)CC1 [drawing 3852],–,–,–,–,25 to 50,51 to 75,51 to 75,76 to 100
COCCNc1nc(-c2ccccn2)nc2c1c(-c1ccccc1)nn2-c1ccccn1 [drawing 3856],–,–,–,–,51 to 75,51 to 75,76 to 100,76 to 100
Oc1nc(-c2ccccn2)nc2c1c(-c1ccccc1)nn2-c1ccccn1 [drawing 3857],–,–,–,–,51 to 75,51 to 75,51 to 75,51 to 75
COc1nc(-c2ccccn2)nc2c1c(-c1ccccc1)nn2-c1ccccn1 [drawing 3858],–,–,–,–,51 to 75,51 to 75,76 to 100,76 to 100
COCC(C)Nc1nc(-c2ccccn2)nc2sc(-c3ccncc3)c(-c3ccccc3)c12 (stereo not shown) [drawing 3859],–,–,–,–,25 to 50,51 to 75,51 to 75,51 to 75
COc1c(O)nc(-c2ccccn2)nc1Oc1cccc(C(F)(F)F)c1 [drawing 3875],–,–,–,–,76 to 100,51 to 75,51 to 75,76 to 100
Oc1nc(-c2ccccn2)nc(Oc2cccc(C(F)(F)F)c2)c1O [drawing 3876],–,–,–,–,51 to 75,51 to 75,51 to 75,51 to 75
Oc1nc(-c2ccccn2)nc2cc(-c3ccncc3)sc12 [drawing 3879],–,–,–,–,51 to 75,51 to 75,25 to 50,51 to 75
Oc1nc(-c2ccccn2)nc2cc(-c3ccccc3)sc12 [drawing 3880],–,–,–,–,51 to 75,51 to 75,25 to 50,51 to 75
